From patent publication US20230139171A1 (SITA Information Networking Computing UK Limited, priority 2019, published 2023)

Legend:
Assay type in all cases: cell-based
human TLR9 = target: T1, human TLR9 (Homo sapiens, UniProt Q9NR96); assay: TLR9 inhibition reporter assay (HEK-Blue cells, SEAP reporter, ODN2006 stimulation); conditions: HEK-Blue cells overexpressing human TLR9, SEAP reporter, ODN2006 5 nM
T1 construct: host or cells: HEK-Blue cells
T1 sequence (Q9NR96 26-1032): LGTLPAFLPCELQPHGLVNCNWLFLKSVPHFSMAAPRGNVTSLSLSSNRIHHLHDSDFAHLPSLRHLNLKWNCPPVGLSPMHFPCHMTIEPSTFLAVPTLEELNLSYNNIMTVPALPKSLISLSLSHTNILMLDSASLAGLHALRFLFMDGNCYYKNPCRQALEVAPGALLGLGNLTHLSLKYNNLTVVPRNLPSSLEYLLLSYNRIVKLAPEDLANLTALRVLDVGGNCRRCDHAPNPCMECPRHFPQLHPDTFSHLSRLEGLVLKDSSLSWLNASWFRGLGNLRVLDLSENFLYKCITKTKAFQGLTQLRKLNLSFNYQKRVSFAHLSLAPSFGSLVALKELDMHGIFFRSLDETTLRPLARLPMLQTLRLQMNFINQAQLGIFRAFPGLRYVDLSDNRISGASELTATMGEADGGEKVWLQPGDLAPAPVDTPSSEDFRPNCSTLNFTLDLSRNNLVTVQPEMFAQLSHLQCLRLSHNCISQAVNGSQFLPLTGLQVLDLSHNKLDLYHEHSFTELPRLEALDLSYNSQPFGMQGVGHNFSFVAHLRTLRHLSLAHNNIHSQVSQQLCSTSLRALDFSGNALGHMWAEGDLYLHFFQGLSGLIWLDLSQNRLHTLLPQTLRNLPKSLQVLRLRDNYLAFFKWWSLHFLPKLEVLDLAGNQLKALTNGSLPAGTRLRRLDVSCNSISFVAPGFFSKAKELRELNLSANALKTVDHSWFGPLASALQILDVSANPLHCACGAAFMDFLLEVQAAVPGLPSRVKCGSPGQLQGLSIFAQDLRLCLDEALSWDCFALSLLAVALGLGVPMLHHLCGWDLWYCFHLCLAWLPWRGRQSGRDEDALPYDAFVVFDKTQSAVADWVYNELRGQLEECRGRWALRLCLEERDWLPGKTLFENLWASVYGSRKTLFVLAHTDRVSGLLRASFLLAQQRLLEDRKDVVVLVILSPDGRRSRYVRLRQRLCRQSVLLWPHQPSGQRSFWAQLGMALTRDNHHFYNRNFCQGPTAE
In short: (§1)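 Human TLR7/8/9 HEK-Blue reporter lines; dose range 0.05 nM–50 μM; 30 min RT preincubation; stimulus gardiquimod 7.5 μM / R848 15.9 μM / ODN2006 5 nM respectively; 22 h, 37 °C; SEAP detected colorimetrically.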

human TLR7 = target: T2, human TLR7 (Homo sapiens, UniProt Q9NYK1); assay: TLR7 inhibition reporter assay (HEK-Blue cells, SEAP reporter, gardiquimod stimulation); conditions: HEK-Blue cells overexpressing human TLR7, SEAP reporter, gardiquimod 7.5 μM; read-out: TLR7 IC50
T2 construct: host or cells: HEK-Blue cells
T2 sequence (Q9NYK1 27-1049): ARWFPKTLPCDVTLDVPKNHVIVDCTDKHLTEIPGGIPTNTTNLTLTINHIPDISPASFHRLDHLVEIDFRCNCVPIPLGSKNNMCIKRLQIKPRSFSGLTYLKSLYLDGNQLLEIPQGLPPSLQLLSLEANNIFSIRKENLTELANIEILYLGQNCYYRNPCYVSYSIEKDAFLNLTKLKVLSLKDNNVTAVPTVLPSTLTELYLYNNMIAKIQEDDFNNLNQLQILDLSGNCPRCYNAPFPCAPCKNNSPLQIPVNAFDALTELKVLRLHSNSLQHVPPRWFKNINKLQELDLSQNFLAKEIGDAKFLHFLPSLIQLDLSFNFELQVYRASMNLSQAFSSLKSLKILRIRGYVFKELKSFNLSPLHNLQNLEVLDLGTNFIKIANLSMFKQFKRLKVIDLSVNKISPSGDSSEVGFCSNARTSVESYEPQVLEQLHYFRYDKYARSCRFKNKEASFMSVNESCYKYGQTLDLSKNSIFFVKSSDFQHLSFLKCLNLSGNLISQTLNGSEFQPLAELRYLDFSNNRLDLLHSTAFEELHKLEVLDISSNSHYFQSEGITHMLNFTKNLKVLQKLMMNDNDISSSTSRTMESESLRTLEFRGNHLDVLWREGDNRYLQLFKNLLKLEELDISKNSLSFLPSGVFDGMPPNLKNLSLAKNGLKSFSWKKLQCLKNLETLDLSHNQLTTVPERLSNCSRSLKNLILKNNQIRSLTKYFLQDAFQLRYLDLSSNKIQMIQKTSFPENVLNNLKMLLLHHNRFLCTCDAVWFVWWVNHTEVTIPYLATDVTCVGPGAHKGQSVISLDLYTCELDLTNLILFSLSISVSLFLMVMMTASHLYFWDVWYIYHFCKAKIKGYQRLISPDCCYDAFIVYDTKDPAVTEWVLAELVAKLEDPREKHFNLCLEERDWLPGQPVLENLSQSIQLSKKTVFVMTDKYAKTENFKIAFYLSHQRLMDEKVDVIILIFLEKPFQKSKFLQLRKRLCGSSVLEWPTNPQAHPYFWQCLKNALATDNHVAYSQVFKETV
In short: as §1

human TLR8 = target: T3, human TLR8 (Homo sapiens, UniProt Q9NR97); assay: TLR8 inhibition reporter assay (HEK-Blue cells, SEAP reporter, R848 stimulation); conditions: HEK-Blue cells overexpressing human TLR8, SEAP reporter, R848 15.9 μM; read-out: TLR8 IC50
T3 construct: host or cells: HEK-Blue cells
T3 sequence (Q9NR97 27-1041): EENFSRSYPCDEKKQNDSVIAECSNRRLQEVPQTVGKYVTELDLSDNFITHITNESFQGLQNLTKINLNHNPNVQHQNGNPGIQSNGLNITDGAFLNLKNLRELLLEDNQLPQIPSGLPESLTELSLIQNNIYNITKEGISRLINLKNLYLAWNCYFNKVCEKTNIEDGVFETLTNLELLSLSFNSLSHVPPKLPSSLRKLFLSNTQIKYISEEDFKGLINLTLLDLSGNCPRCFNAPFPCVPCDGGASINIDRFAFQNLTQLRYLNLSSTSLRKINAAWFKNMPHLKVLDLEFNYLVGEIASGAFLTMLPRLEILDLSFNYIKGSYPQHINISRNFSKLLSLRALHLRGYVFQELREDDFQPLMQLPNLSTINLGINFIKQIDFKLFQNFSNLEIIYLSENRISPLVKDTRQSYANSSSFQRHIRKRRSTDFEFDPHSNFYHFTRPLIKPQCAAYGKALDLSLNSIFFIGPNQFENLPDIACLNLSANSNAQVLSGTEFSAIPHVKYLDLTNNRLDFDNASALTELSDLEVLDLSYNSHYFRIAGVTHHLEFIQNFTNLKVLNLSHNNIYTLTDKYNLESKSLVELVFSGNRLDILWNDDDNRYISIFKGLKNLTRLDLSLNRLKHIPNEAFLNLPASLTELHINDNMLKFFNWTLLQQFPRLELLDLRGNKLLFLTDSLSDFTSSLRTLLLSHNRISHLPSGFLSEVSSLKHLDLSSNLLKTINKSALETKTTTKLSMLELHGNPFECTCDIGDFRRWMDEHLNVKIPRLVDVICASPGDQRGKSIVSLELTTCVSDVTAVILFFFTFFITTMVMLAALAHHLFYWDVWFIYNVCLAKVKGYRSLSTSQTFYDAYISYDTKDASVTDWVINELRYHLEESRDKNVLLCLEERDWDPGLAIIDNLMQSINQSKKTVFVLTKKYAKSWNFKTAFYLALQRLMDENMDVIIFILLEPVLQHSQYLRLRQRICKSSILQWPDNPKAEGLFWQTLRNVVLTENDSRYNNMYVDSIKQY
In short: as §1

| Compound | IC50 (human TLR9) | IC50 (human TLR7) | IC50 (human TLR8) |
| --- | --- | --- | --- |
| CCC1(NC2CCC(c3nc4c(C(C)C)c(-c5cc(OC)c6ncnn6c5)[nH]c4s3)CC2)COC1 (single isomer, unassigned) [Example 95, 3-ethyl-N-(4-(6-isopropyl-5-(8-methoxy-[1,2,4]triazolo[1,5-a]pyridin-6-yl)-4H-pyrrolo[3,2-d]thiazol-2-yl)cyclohexyl)oxetan-3-amine] | 43200 nM | 11.7 nM | 23.8 nM |
| COc1cc(-c2[nH]c3sc(C4CCC(N5CC6(C5)CS(=O)(=O)C6)CC4)nc3c2C(C)C)cn2ncnc12 (single isomer, unassigned) [Example 96, 6-(4-(6-isopropyl-5-(8-methoxy-[1,2,4]triazolo[1,5-a]pyridin-6-yl)-4H-pyrrolo[3,2-d]thiazol-2-yl)cyclohexyl)-2-thia-6-azaspiro[3.3]heptane 2,2-dioxide] | 7770 nM | 1.53 nM | 0.98 nM |
| COc1cc(-c2[nH]c3sc(C4CCC(N5CCCC5)CC4)nc3c2C(C)C)cn2ncnc12 (single isomer, unassigned) [Example 98, 6-isopropyl-5-(8-methoxy-[1,2,4]triazolo[1,5-a]pyridin-6-yl)-2-(4-(pyrrolidin-1-yl)cyclohexyl)-4H-pyrrolo[3,2-d]thiazole] | 2980 nM | 0.12 nM | 1.37 nM |
| COc1cc(-c2[nH]c3sc(C4CCC(N5CCCC5)CC4)nc3c2C(C)C)cn2ncnc12 (single isomer, unassigned) [Example 99, 6-isopropyl-5-(8-methoxy-[1,2,4]triazolo[1,5-a]pyridin-6-yl)-2-(4-(pyrrolidin-1-yl)cyclohexyl)-4H-pyrrolo[3,2-d]thiazole] | 3610 nM | 1.19 nM | 36.7 nM |
| COc1cc(-c2[nH]c3sc(C4CCC(N5[C@@H]6CC[C@H]5COC6)CC4)nc3c2C(C)C)cn2ncnc12 (single isomer, unassigned) [Example 104] | 5600 nM | 1.98 nM | 2.81 nM |
| COc1cc(-c2[nH]c3sc(C4CCC(N5[C@@H]6CC[C@H]5COC6)CC4)nc3c2C(C)C)cn2ncnc12 (single isomer, unassigned) [Example 105] | 2180 nM | 1.38 nM | 43.2 nM |

The next lines start with the values.

| IC50 (human TLR9) | IC50 (human TLR7) | IC50 (human TLR8) | Compound |
| --- | --- | --- | --- |
| 6400 nM | 78.9 nM | 114 nM | COc1cc(-c2[nH]c3sc(C4CCC(N5CC[C@@H](NC(C)=O)C5)CC4)nc3c2C(C)C)cn2ncnc12 (single isomer, unassigned) [Example 100] |
| 4790 nM | 3.68 nM | 23 nM | COc1cc(-c2[nH]c3sc(C4CCC(N5CC[C@@H](NC(C)=O)C5)CC4)nc3c2C(C)C)cn2ncnc12 (single isomer, unassigned) [Example 101] |
| 3890 nM | 0.37 nM | 14 nM | COc1cc(-c2[nH]c3sc(C4CCC(N5CCCOCC5)CC4)nc3c2C(C)C)cn2ncnc12 (single isomer, unassigned) [Example 102, 4-(4-(6-isopropyl-5-(8-methoxy-[1,2,4]triazolo[1,5-a]pyridin-6-yl)-4H-pyrrolo[3,2-d]thiazol-2-yl)cyclohexyl)-1,4-oxazepane] |
| 3600 nM | 48 nM | 3.46 nM | COc1cc(-c2[nH]c3sc(C4CCC(N5CCCOCC5)CC4)nc3c2C(C)C)cn2ncnc12 (single isomer, unassigned) [Example 103, 4-(4-(6-isopropyl-5-(8-methoxy-[1,2,4]triazolo[1,5-a]pyridin-6-yl)-4H-pyrrolo[3,2-d]thiazol-2-yl)cyclohexyl)-1,4-oxazepane] |
| 5700 nM | 1.34 nM | 4.49 nM | COc1cc(-c2[nH]c3sc(C4CCC(NC5(C)CCC5)CC4)nc3c2C(C)C)cn2ncnc12 (single isomer, unassigned) [Example 108, 4-(6-isopropyl-5-(8-methoxy-[1,2,4]triazolo[1,5-a]pyridin-6-yl)-4H-pyrrolo[3,2-d]thiazol-2-yl)-N-(1-methylcyclobutyl) cyclohexan-1-amine] |
| 6090 nM | 6.81 nM | 27.9 nM | COc1cc(-c2[nH]c3sc(C4CCC(NC5(C)CCC5)CC4)nc3c2C(C)C)cn2ncnc12 (single isomer, unassigned) [Example 109, 4-(6-isopropyl-5-(8-methoxy-[1,2,4]triazolo[1,5-a]pyridin-6-yl)-4H-pyrrolo[3,2-d]thiazol-2-yl)-N-(1-methylcyclobutyl) cyclohexan-1-amine] |
| 5780 nM | 2.21 nM | 0.93 nM | COc1cc(-c2[nH]c3sc(C4CCC(N5CC6(CCOCC6)C5)CC4)nc3c2C(C)C)cn2ncnc12 (single isomer, unassigned) [Example 110, 2-(4-(6-isopropyl-5-(8-methoxy-[1,2,4]triazolo[1,5-a]pyridin-6-yl)-4H-pyrrolo[3,2-d]thiazol-2-yl)cyclohexyl)-7-oxa-2-azaspiro[3.5]nonane] |
